# According to publication PMC12030426, “Translational Pharmacokinetic-Pharmacodynamic Modeling of a Novel Oral Dihydroorotate Dehydrogenase (DHODH) Inhibitor, HOSU-53 (JBZ-001)” (Pharmaceutics, 2025):
# “Also recorded” adds a separate entry of the source.
# Experiments:
# plasma DHO [1] = assay: population PD model (indirect turnover, plasma DHO), mouse; type: in vivo
# Experimental: (§1) To develop the PK/PD models, a sequential approach was tested for dog data, involving the initial construction of the PK model, fixing the PK parameters with population estimated thetas and eta variances, and then estimating the PD parameters. For mouse and rat data, a simultaneous approach was employed, estimating PK and PD parameters concurrently, assuming log-normal distribution for both. To account for the delay in PD response that results from the inhibition of DHODH, the factor controlling the dissipation of the response, various modeling approaches were employed. One approach involved using an effect compartment model with an equilibrium half-life parameter ( ke0 ) to characterize the delay,
# (§2) The final PK/PD model for both species was an indirect turnover model with degradation inhibition. The parameters for the final dog and mouse PK/PD models are presented in Table 3 and Supplementary Table S3, respectively.
# plasma DHO [2] = assay: population PD model (indirect turnover, plasma DHO), dog; type: in vivo
# Experimental: as §1, §2
# [3] = 28-day GLP repeat-dose toxicity study in rats
# Experimental: A series of PK and PD studies was carried out using a range of single and repeat dosing regimens in rats, exploring variations in formulation and dosing schedules. The initial experiment evaluated the PK/PD profile following a single dose of 10 mg/kg PO and 3 mg/kg IV using 40% HPBCD. Building on the single-dose results, repeat dosing was investigated at 1 (both sexes), 3 (both sexes), 6 (females), and 10 (males) mg/kg (PO, QD) and 30 (both sexes) mg/kg (PO, BIWK) regimen in 40% HPBCD formulation. To extend the findings into a disease-relevant context, repeat dosing was evaluated for 14 days in a MOLM-13 xenograft model in the Sprague Dawley Rag2−/− Il2rg−/− (SRG) male rats, where doses of 1, 3, and 10 mg/kg (PO, QD) were administered, alongside 30 mg/kg biweekly (PO, BIWK).
# [4] = noncompartmental PK in rats; type: in vivo
# Description: (§3) Non-clinical PK of HOSU-53 has been studied and analyzed after single and multiple doses with noncompartmental analysis (NCA). […] F was similar between the two species, with mean values of approximately 60% and 50% in rats and dogs, respectively.
# PPARγ = details: cited from earlier work
# [5] = population PK model, mouse; type: in vivo
# Experimental: (§4) Population PK analyses were performed using nonlinear mixed-effects modeling implemented in Monolix software (Monolix Suite 2024R1, Antony, France). This approach utilizes the stochastic approximation of the expectation-maximization (SAEM) algorithm coupled with a Markov chain Monte Carlo (MCMC) method to optimize the likelihood. One- and two-compartment PK models incorporating zero- and first-order absorption with linear elimination were evaluated. Interindividual variability (IIV) in PK parameters was assumed to follow a log-normal distribution, except for bioavailability (F), which was modeled using a logit-normal distribution. An exponential model was applied, as described by the following equation: θi=θp×e^ηi where θi is the model predicted PK parameter for the ith animal, θp is the typical population PK parameter, and ηi is the random variable of normal distribution with mean zero and variance ω^2 .
# (§5) Residual or random unexplained variability was evaluated using additive, proportional, and combined error models. For each model, several criteria were assessed, including the objective function value (OFV), Akaike Information Criterion (AIC), Bayesian Information Criterion (BIC), corrected Bayesian Information Criterion (BICc), and the precision of parameter estimates, expressed as residual standard errors.
# The final structural PK models for both mouse and dog data were two-compartment disposition models with first-order absorption and linear elimination. We ultimately chose to exclude rat data from the population modeling effort, as described below in this section. The parameters for the final dog and mouse PK models are presented in Table 3 and Supplementary Table S3, respectively. All parameters were estimated with good precision, as indicated by the %RSE of the estimates. Proportional and combined error models were selected for the mouse and dog data, respectively.
# population PK model, dog = type: in vivo
# Experimental: as §4, §5
# During the development of the PK model for dogs, a two-compartment model was first constructed using IV data alone. […] This approach provided reasonable estimates for F and Ka, with acceptable RSE values (Table 3). […] The GOF plots for the final PK models of dog and mouse are presented in Figure 1 and Supplementary Figure S1, respectively.
# [6] = set-up: method as in PMID 38646934; details: cited from earlier work
# thermodynamic solubility = type: physicochemical; details: pH 6.5; experimental data
# Experimental: (§6) PBPK models were developed using PK-Sim v11.0 in rats and beagle dogs, and each was used to predict data in the other species, including mice. A base model was parameterized using lipophilicity, plasma protein binding, thermodynamic solubility, and pKa measured from in vitro studies. Half-life of HOSU-53 measured in beagle cryo-preserved hepatocytes was used along with hepatocyte incubation density within the In Vitro to In Vivo Extrapolation (IVIVE) tools in PK-Sim to estimate metabolic clearance in vivo [25]. Renal clearance of unbound plasma HOSU-53 was assumed to be driven solely by glomerular filtration rate (GFR). Various methods were used to calculate partition coefficients and cellular permeabilities in PK-Sim. PK predictions generated for each combination of calculation methods were compared to the mean observed IV profile, and the methods that best matched the observed data were selected. Ultimately, partition coefficients were calculated using the Rodgers and Rowland method, and cellular permeabilities were calculated using the charge-dependent Schmitt method. PK following oral administration of HOSU-53 was used to identify parameter values for intestinal permeability for the sodium and lysine salt forms administered in deionized (DI) water. […]
# [7] = in vitro hepatic stability assay scaled by IVIVE, rat; type: in vitro ADME; details: scaled from in vitro hepatic stability assay
# Experimental: as §6
# [8] = noncompartmental PK in dogs; type: in vivo
# Description: as §3
# [9] = tested on: MOLM-13 cell line–derived xenograft; set-up: method as in PMID 38646934; details: combined with other front-line therapies; cited from earlier work
# [10] = noncompartmental PK in mice; type: in vivo
# hERG ion channel = tested on: hERG ion channel; set-up: method as in PMID 38646934; details: cited from earlier work
# PXR = tested on: PXR; set-up: method as in PMID 38646934; details: cited from earlier work
# [11] = 28-day GLP repeat-dose toxicity study in dogs
# Experimental: The PK/PD characterization of HOSU-53 in beagle dogs was conducted across several studies. An initial single-dose PK/PD evaluation was carried out with male dogs receiving HOSU-53 (10 mg/kg, PO; 3 mg/kg, IV) in 40% HPBCD. Then, repeat-dose PK/PD over 7 days was assessed in male and female dogs with doses of 0.3, 1, and 3 mg/kg (PO, QD) in deionized water. […] Additional GLP toxicokinetic and toxicodynamic evaluations were performed, where dogs were dosed at 0.2, 0.6, and 1 mg/kg (PO, QD) for 28 days followed by a 14-day recovery period (Details in Supplementary Table S1).
# pKa = type: physicochemical; details: experimental data
# Experimental: as §6
# [12] = set-up: method as in PMID 38646934; details: cited from earlier work; remark: listed apart in the source
# plasma DHO [13] = assay: correlation of plasma DHO exposure with efficacy, tolerability and toxicity in repeat dose studies; type: in vivo, rats, dogs, and tumor-bearing mice; details: based on preclinical experiments
# Experimental: These GI toxicities are consistent with the high proliferative demand of intestinal epithelial cells, which rely on pyrimidine availability for DNA synthesis and repair. The No Observed Adverse Effect Levels (NOAELs) from the rat and dog GLP toxicity studies were then determined to be one dose level lower, which are 2.5 mg/kg (PO, QD) and 0.6 mg/kg (PO, QD), respectively. Based on repeat dose studies in rats, dogs, and tumor-bearing mice, efficacy, tolerability, and toxicity can be correlated with levels of the PD biomarker DHO in plasma.
# human DHODH = human DHODH (Homo sapiens, UniProt Q02127); set-up: method as in PMID 38646934; details: cell-free; read-out: IC50 in cell-free human DHODH inhibition assay; cited from earlier work
# Chain of human DHODH (Q02127 whole entry): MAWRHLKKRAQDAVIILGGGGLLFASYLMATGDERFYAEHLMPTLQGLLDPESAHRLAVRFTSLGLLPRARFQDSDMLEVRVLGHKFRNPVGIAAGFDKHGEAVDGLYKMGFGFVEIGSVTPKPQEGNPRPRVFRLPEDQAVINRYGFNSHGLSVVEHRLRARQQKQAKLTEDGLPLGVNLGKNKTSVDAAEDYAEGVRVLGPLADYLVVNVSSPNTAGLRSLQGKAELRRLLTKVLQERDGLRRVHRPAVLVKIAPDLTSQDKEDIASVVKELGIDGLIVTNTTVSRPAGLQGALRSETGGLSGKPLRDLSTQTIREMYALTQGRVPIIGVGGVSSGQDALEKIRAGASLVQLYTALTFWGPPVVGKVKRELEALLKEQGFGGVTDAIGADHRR
smiles,measurement,setting,value
CCCCOc1cccc(-c2ccc(-c3cc(C(=O)O)c4cc(F)ccc4n3)cc2)c1 [HOSU-53],IC50,plasma DHO [1]; bootstrap point estimate,1610 nM
same,Kout,plasma DHO [1]; bootstrap point estimate,127 h⁻¹
same,gamma,plasma DHO [1]; bootstrap point estimate,1.63
same,Kout,plasma DHO [1]; model estimate (RSE %),155 (12.7) /h
same,gamma,plasma DHO [1]; model estimate (RSE %),1.71 (0.1)
same,IC50,"plasma DHO [1]; plasma HOSU-53 concentration, inhibition of DHO degradation, model estimate (RSE %)",1550 nM
same,IC50,plasma DHO [2]; bootstrap point estimate,80 nM
same,Kout,plasma DHO [2]; bootstrap point estimate,70 h⁻¹
same,gamma,plasma DHO [2]; bootstrap point estimate,1.86
same,Kout,plasma DHO [2]; model estimate (RSE%),52 (11.4) /h
same,gamma,plasma DHO [2]; model estimate (RSE%),1.9 (1.6)
same,IC50,"plasma DHO [2]; plasma HOSU-53 concentration, inhibition of DHO degradation, model estimate (RSE%)",100 nM
same,adverse effects,"[3]; male and female rats, 5 mg/kg PO, QD","decreased lymphoid cellularity in the thymus, mild-to-moderate decreases in lymphocyte counts, and lower thymus weights"
same,HNSTD or STD10,[3]; rats,5 mg/kg/day
same,NOAEL,"[3]; rats, PO, QD, 28-day GLP",2.5 mg/kg
same,maximum DHO concentration with no toxicity,"[3]; rats, preclinical toxicokinetic data",~ 2870 ng/mL
same,human equivalent dose (HED),[3]; scaled by body surface area from rats (divided by 6.2),0.8 mg/kg/day
same,F,"[4]; mean, NCA",approximately 60%
same,dose proportionality of plasma levels,"[4]; repeated oral dosing, higher doses, dose range 3–10 mg/kg",less-than-dose-proportional manner
same,"PPARγ agonism potency, fold less than potency against MOLM-13 AML cells in cell viability assays",PPARγ,1500 ×
same,CL/F,[5]; bootstrap point estimate,0.07 mL/h
same,F (%),[5]; bootstrap point estimate,54%
same,Ka,[5]; bootstrap point estimate,1.2 h⁻¹
same,Q,[5]; bootstrap point estimate,1.6 mL/h
same,V1,[5]; bootstrap point estimate,1.3 mL
same,V2,[5]; bootstrap point estimate,1.1 mL
same,CL/F,[5]; model estimate (RSE %),0.07 (5.0) mL/h
same,F (%),[5]; model estimate (RSE %),0.53 (0.02) %
same,Ka,[5]; model estimate (RSE %),1.0 (0.02) /h
same,Q,[5]; model estimate (RSE %),1.6 (1.7) mL/h
same,V1,[5]; model estimate (RSE %),1.2 (8.7) mL
same,V2,[5]; model estimate (RSE %),1.2 (5.3) mL
same,F (%),"population PK model, dog; bootstrap point estimate",0.67 fraction
same,Ka,"population PK model, dog; bootstrap point estimate",1.55 h⁻¹
same,F (%),"population PK model, dog; model estimate (RSE%)",0.67 (2.8) %
same,Ka,"population PK model, dog; model estimate (RSE%)",1.53 (12.6) /h
same,CL/F,"population PK model, dog; model estimate, fixed",150 Fix mL/h
same,Q,"population PK model, dog; model estimate, fixed",400 Fix mL/h
same,V1,"population PK model, dog; model estimate, fixed",980 Fix mL
same,V2,"population PK model, dog; model estimate, fixed",490 Fix mL
same,Ames mutagenicity,[6],negative
same,Solubility,thermodynamic solubility,18.8 μg/mL (pH 6.5)
same,Specific Clearance,[7],7.29 min⁻¹
same,F,"[8]; mean, NCA",~50%
same,dose proportionality of plasma levels,"[8]; repeated oral dosing, dose range 0.3–3 mg/kg",dose-proportional manner
same,survival,[9],prolonged survival benefits
same,mean T1/2,[10]; NCA,30 h
same,dose proportionality of plasma levels,"[10]; repeated oral dosing, higher doses, dose range 4–30 mg/kg",less-than-dose-proportional manner
same,F,"[10]; single IV 3 mg/kg and oral 10 mg/kg, NCA",86%
same,hERG ion channel inhibition,hERG ion channel,does not induce PXR or inhibit the hERG ion channel
same,PXR induction,PXR,does not induce PXR
same,survival,"[11]; all dogs, 28-day GLP study",survived until scheduled euthanasia
same,HNSTD or STD10,[11]; dogs,0.6 mg/kg/day
same,NOAEL,"[11]; dogs, PO, QD, 28-day GLP",0.6 mg/kg
same,maximum DHO concentration with no toxicity,"[11]; dogs, preclinical toxicokinetic data",~ 5850 ng/mL
same,heart rate and RR interval,"[11]; female dogs, 1 mg/kg PO, QD, 1–2 h postdosing, weeks 1 and 4",lower heart rate and longer RR interval duration
same,adverse effects,"[11]; male and female dogs, 1 mg/kg PO, QD, 1 mg/kg","decreased food consumption, lower body weights, and adverse intestinal microscopic findings related to mucosal epithelial cell loss; also recorded: decreased food consumption, lower body weights, and adverse intestinal (colon, ileum, and/or jejunum) microscopic findings related to mucosal epithelial cell loss"
same,human equivalent dose (HED),[11]; scaled by body surface area from dogs (divided by 1.8),0.3 mg/kg/day
same,pKa (Acid),pKa,3.05 (Acid)
same,pKa (Base),pKa,1.19 (Base)
same,micronucleus assay,[12],negative
same,"AUCtau,ss of DHO at which optimal efficacy is expected",plasma DHO [13],around 300 µM·h
same,IC50,human DHODH,0.95 nM
